Like-named read-outs stand apart in the source and are kept apart here.

Here are results for 18 molecules from patent US8193191B2, “Urotensin II receptor antagonists” (Janssen Pharmaceutica N.V., priority 2006, dated 2012).

In test [1] the target is T1, rat GPR14 (U-II receptor) (Rattus norvegicus, UniProt P49684).
T1 construct: expressed in transfected cells
T1 sequence (P49684 1-386): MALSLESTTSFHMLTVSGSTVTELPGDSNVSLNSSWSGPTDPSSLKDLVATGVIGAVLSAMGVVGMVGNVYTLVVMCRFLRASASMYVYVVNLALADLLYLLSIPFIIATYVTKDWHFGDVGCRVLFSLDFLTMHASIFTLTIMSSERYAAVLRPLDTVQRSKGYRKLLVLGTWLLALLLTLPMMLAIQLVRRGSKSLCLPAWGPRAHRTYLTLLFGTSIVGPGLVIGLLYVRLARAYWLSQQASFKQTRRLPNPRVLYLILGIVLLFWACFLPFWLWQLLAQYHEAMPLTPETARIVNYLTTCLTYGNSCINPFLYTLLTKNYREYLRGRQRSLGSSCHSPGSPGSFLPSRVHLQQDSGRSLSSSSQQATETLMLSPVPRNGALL
The test can be described thus: Rat UII Calcium Mobilization FLIPR Assay. The following applies: average value for the compound tested; read-out: Rat UII FLIPR Average IC50. It is filed as cell-based. Put shortly: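 Fluorescent calcium signals were recorded at room temperature (23° C) by FLIPR. Stable rat U-II receptor CHO lines had been dye-loaded for 1 h at 37° C in pH 7.4 HBSS containing 20 mM HEPES, 0.1% BSA and 2.5 mM probenecid.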

The target in test [2] is T2, Human UII receptor, 6D9 human rhabdomyosarcoma cells (Homo sapiens, UniProt Q9UKP6).
T2 construct: 6D9: isolated by dilution subcloning of RMS13 cells, ATCC® Number: CRL-2061; host or cells: 6D9 human rhabdomyosarcoma cells (subclone of RMS13)
T2 sequence (Q9UKP6 1-389): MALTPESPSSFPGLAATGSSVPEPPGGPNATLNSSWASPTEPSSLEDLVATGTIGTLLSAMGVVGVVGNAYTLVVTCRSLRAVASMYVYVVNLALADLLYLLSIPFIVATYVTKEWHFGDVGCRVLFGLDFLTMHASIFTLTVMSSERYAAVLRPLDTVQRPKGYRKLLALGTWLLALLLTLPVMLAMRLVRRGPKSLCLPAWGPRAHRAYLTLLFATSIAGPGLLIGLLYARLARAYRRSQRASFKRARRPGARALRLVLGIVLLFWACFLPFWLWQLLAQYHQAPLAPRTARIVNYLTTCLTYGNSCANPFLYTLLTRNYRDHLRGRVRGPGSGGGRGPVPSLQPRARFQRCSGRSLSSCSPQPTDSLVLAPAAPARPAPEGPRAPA
Kind of test: Human UII Calcium Mobilization Assay. It is filed as cell-based. To be noted: average value, FLIPR TETRA, read-out: Human UII Ca^+ Mobilization Average IC50. In outline: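 FLIPR calcium responses were recorded for 4 minutes after room-temperature addition of test antagonist and U-II, in dye-loaded human 6D9 cells (37° C, 45 min; HBSS/HEPES with probenecid 1.25 mM). Compounds serially diluted in HBSS/HEPES, up to 0.1% DMSO; curves gave IC50 and EC50.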

The target in test [3] is T3, endogenous human UII receptor (Homo sapiens, UniProt Q9UKP6).
T3 sequence (Q9UKP6 1-389): T2 sequence (Q9UKP6 1-389)
Kind of test: Human Radioligand Binding Assay ((^125I)-U-II binding to human skeletal muscle myoblasts).

In the case of `COc1ccc([C@@H](CCCNC(=O)c2c(C)n[nH]c2C)N2C(=O)c3cccc(N4CCN([C@H](C)c5ccccc5)CC4)c3C2=O)cc1OC` [Cpd 215, (R)-3,5-dimethyl-1H-pyrazole-4-carboxylic acid (4-(3,4-dimethoxy-phenyl)-4-{1,3-dioxo-4-[4-(1R)-(1-phenyl-ethyl)-piperazin-1-yl]-1,3-dihydro-isoindol-2-yl}-butyl)-amide], the IC50 in test [1] stood at 11 nM; in test [2], 37 nM. Moreover, the Ki in test [3] (read-out: Human UII Average Binding Ki, average value, (^125I)-U-II binding to human skeletal muscle myoblasts (HSMM), 25° C., 3 h) came out at 87 nM.
Consider `COc1ccc([C@@H](CCNC(=O)c2cnoc2C)N2C(=O)c3cccc(N4CCN([C@H](C)c5ccccc5)CC4)c3C2=O)cc1OC` [Cpd 217, (R)-5-methyl-isoxazole-4-carboxylic acid (3-(3,4-dimethoxy-phenyl)-3-{1,3-dioxo-4-[4-(1R)-(1-phenyl-ethyl)-piperazin-1-yl]-1,3-dihydro-isoindol-2-yl}-propyl)-amide], for which the figures for the IC50 in test [1] and in test [2] were 14 nM and 1000 nM, respectively. Besides, in test [3], the affinity corresponds to a Ki of 32 nM.
The like results for `CCN1CCN(c2cccc3c2C(=O)N([C@H](CCCOCC(=O)O)c2ccc(OC)c(OC)c2)C3=O)CC1` [Cpd 218, (R)-{4-(3,4-dimethoxy-phenyl)-4-[4-(4-ethyl-piperazin-1-yl)-1,3-dioxo-1,3-dihydro-isoindol-2-yl]-butoxy}-acetic acid] were, in that order, 240 nM, 2400 nM and over 300 nM.
As to `COc1ccc([C@@H](CCNS(=O)(=O)c2cn(C)c(C)n2)N2C(=O)c3cccc(N4CCN([C@H](C)c5ccccc5)CC4)c3C2=O)cc1OC` [Cpd 219, (R)-1,2-dimethyl-1H-imidazole-4-sulfonic acid (3-(3,4-dimethoxy-phenyl)-3-{1,3-dioxo-4-[4-(1R)-(1-phenyl-ethyl)-piperazin-1-yl]-1,3-dihydro-isoindol-2-yl}-propyl)-amide], the values for the IC50 in test [1] and in test [2] were 22 nM and 1000 nM, respectively. Further, in test [3], the Ki worked out at 44 nM.
The matching figures for `COc1ccc([C@@H](CCNS(=O)(=O)O)N2C(=O)c3cccc(N4CCN([C@H](C)c5ccccc5)CC4)c3C2=O)cc1OC` [Cpd 220, (R)-(3-(3,4-dimethoxy-phenyl)-3-{1,3-dioxo-4-[4-(1R)-(1-phenyl-ethyl)-piperazin-1-yl]-1,3-dihydro-isoindol-2-yl}-propyl)-sulfamic acid]: 23 nM, 170 nM and 11 nM.
As for `COc1ccc([C@@H](CCNC(=O)c2ccncc2)N2C(=O)c3cccc(N4CCN([C@H](C)c5ccccc5)CC4)c3C2=O)cc1OC` [Cpd 221, (R)-N-(3-(3,4-dimethoxy-phenyl)-3-{1,3-dioxo-4-[4-(1R)-(1-phenyl-ethyl)-piperazin-1-yl]-1,3-dihydro-isoindol-2-yl}-propyl)-isonicotinamide], the IC50 was found to be 15 nM in test [1] and 910 nM in test [2]. Further, the Ki in test [3] is 72 nM.
Take `COc1ccc([C@@H](CCNS(=O)(=O)Cc2ccccc2)N2C(=O)c3cccc(N4CCN([C@H](C)c5ccccc5)CC4)c3C2=O)cc1OC` [Cpd 222, (R)-N-(3-(3,4-dimethoxy-phenyl)-3-{1,3-dioxo-4-[4-(1R)-(1-phenyl-ethyl)-piperazin-1-yl]-1,3-dihydro-isoindol-2-yl}-propyl)-C-phenyl-methanesulfonamide]: the values for the IC50 in test [1] and in test [2] were 25 nM and 1500 nM, respectively. In test [3], the Ki worked out at 140 nM.
`COc1ccc([C@@H](CCNS(=O)(=O)c2c(C)n[nH]c2C)N2C(=O)c3cccc(N4CCN([C@H](C)c5ccccc5)CC4)c3C2=O)cc1OC` [Cpd 223, (R)-3,5-dimethyl-1H-pyrazole-4-sulfonic acid (3-(3,4-dimethoxy-phenyl)-3-{1,3-dioxo-4-[4-(1R)-(1-phenyl-ethyl)-piperazin-1-yl]-1,3-dihydro-isoindol-2-yl}-propyl)-amide]: the IC50 is 12 nM in test [1] and 240 nM in test [2]. The same molecule showed a Ki in test [3] of 120 nM.
`COc1ccc([C@@H](CCCNS(=O)(=O)c2cccs2)N2C(=O)c3cccc(OCCCN(C)C)c3C2=O)cc1OC` [Cpd 224, (R)-thiophene-2-sulfonic acid {4-(3,4-dimethoxy-phenyl)-4-[4-(3-dimethylamino-propoxy)-1,3-dioxo-1,3-dihydro-isoindol-2-yl]-butyl}-amide]: the IC50 came to 340 nM in test [1] and 2000 nM in test [2]. In test [3], this molecule had a Ki of over 300 nM.
The matching figures for `COc1cc(Br)c(CN2C(=O)c3cccc(N4CCN([C@H](C)c5ccccc5)CC4)c3C2=O)cc1OC` [Cpd 225, 2-(2-bromo-4,5-dimethoxy-benzyl)-4-[4-(1R)-(1-phenyl-ethyl)-piperazin-1-yl]-isoindole-1,3-dione]: 1500 nM, over 10000 nM and over 300 nM.
The matching figures for `COc1ccc(CN2C(=O)c3ccc(N4CCN([C@H](C)c5ccccc5)CC4)cc3C2=O)cc1OC` [Cpd 226, 2-(3,4-dimethoxy-benzyl)-5-[4-(1R)-(1-phenyl-ethyl)-piperazin-1-yl]-isoindole-1,3-dione]: 10000 nM, over 10000 nM and over 300 nM.
The matching figures for `CCN1CCN(c2cccc3c2C(=O)N([C@H](CCCOCc2c(F)cccc2F)c2ccc(OC)c(OC)c2)C3=O)CC1` [Cpd 227, (R)-2-[4-(2,6-difluoro-benzyloxy)-1-(3,4-dimethoxy-phenyl)-butyl]-4-(4-ethyl-piperazin-1-yl)-isoindole-1,3-dione]: 160 nM, 2900 nM and over 300 nM.
For `COc1ccc([C@@H](CCCN(C)S(=O)(=O)O)N2C(=O)c3cccc(N4CCN([C@H](C)c5ccccc5)CC4)c3C2=O)cc1OC` [Cpd 228, (R)-(4-(3,4-dimethoxy-phenyl)-4-{1,3-dioxo-4-[4-(1R)-(1-phenyl-ethyl)-piperazin-1-yl]-1,3-dihydro-isoindol-2-yl}-butyl)-methyl-sulfamic acid], the IC50 in test [1] was 49 nM; in test [2], 780 nM. Moreover, the Ki in test [3] is 25 nM.
The matching figures for `COc1ccc([C@@H](CCCNS(=O)(=O)c2cccs2)N2C(=O)c3cccc(OCCN(C)C)c3C2=O)cc1OC` [Cpd 229, (R)-thiophene-2-sulfonic acid {4-(3,4-dimethoxy-phenyl)-4-[4-(2-dimethylamino-ethoxy)-1,3-dioxo-1,3-dihydro-isoindol-2-yl]-butyl}-amide]: over 100 nM, 1700 nM and 320 nM.
The matching figures for `CCN1CCN(c2cccc3c2C(=O)N(C(c2cccc(NCc4ccccc4)c2)c2ccc(OC)c(OC)c2)C3=O)CC1` (stereo not drawn) [Cpd 230, 2-[(3-benzylamino-phenyl)-(3,4-dimethoxy-phenyl)-methyl]-4-(4-ethyl-piperazin-1-yl)-isoindole-1,3-dione]: 290 nM, 1900 nM and over 300 nM.
The matching figures for `CCN1CCN(c2cccc3c2C(=O)N(C(c2cccc(NS(=O)(=O)O)c2)c2ccc(OC)c(OC)c2)C3=O)CC1` (stereo not drawn) [Cpd 231, (3-{(3,4-dimethoxy-phenyl)-[4-(4-ethyl-piperazin-1-yl)-1,3-dioxo-1,3-dihydro-isoindol-2-yl]-methyl}-phenyl)-sulfamic acid]: 680 nM, 3400 nM and 511 nM.
With `CCN1CCN(c2cccc3c2C(=O)N(C(CC2CCN(Cc4ccccc4)CC2)c2ccc(OC)c(OC)c2)C3=O)CC1` (stereo not drawn) [Cpd 232, 2-[2-(1-benzyl-piperidin-4-yl)-1-(3,4-dimethoxy-phenyl)-ethyl]-4-(4-ethyl-piperazin-1-yl)-isoindole-1,3-dione], the results for the IC50 in test [1] and in test [2] were 410 nM and 4100 nM, respectively. In test [3], this molecule came in with a Ki of over 300 nM.
`CCN1CCN(c2cccc3c2C(=O)N(C(CC2CCN(S(=O)(=O)O)CC2)c2ccc(OC)c(OC)c2)C3=O)CC1` (stereo not drawn) [Cpd 233, 4-{2-(3,4-dimethoxy-phenyl)-2-[4-(4-ethyl-piperazin-1-yl)-1,3-dioxo-1,3-dihydro-isoindol-2-yl]-ethyl}-piperidine-1-sulfonic acid]: the values for the IC50 in test [1] and in test [2] were 660 nM and 770 nM, respectively. Further, the Ki in test [3] was found to be 57 nM.
